Source: US8460646B2, “Methods and compositions for treating mammalian nerve tissue injuries” (Purdue Research Foundation, priority 1998, dated 2013)

Assays:
[1] = test system: crushed spinal cord ventral white matter strip; assay: Potassium channel blockade (4-AP) as adjunct to PEG-mediated recovery of CAP conduction; design: species or system guinea pig; details: for Enhancement of recovered CAP by 4-AP, group data: 5 cords; for Enhancement of recovered CAP by 4-AP: reversible
Method: The above-described technique should be considered as a basic one, from which testing of several variations described below was performed. For example, tests were made of the response of “recovering” axons to the additional application of the fast potassium channel blocker, 4 aminopyridine (4-AP). In this trial, 5 separate cords were treated with an application of PEG as described above and compared to 5 control cords. One hour after compression, 100 pM 4-AP (in Krebs' solution) was applied for 15 minutes and then washed free with normal Krebs' solution as described above.
Spinal cords were crushed, isolated and treated with PEG as described in Example 1. Analysis was also performed in the double sucrose recording chamber as described in Example 1.

[2] = test system: crushed spinal cord ventral white matter strip; details: in vitro; Shi and Borgens 1999; cited from earlier work

## Nc1ccncc1 [4-AP, 4-aminopyridine]
[1]; PEG-treated (experimental) group
  Enhancement of recovered CAP by 4-AP, group data: about 70%
[1]; PEG-treated cord, 4-AP at 1 hour post PEG application, individual test
  Enhancement of recovered CAP by 4-AP: about 70%
[1]; control group (crushed, no PEG)
  Enhancement of recovered CAP by 4-AP, group data: about 40%
[1]; crushed cord untreated with PEG, 100 pM 4-AP at 1 hour post injury, single test
  Enhancement of recovered CAP by 4-AP: about 40%
[2]
  Magnitude of the recovered CAP after local 4-aminopyridine in PEG-repaired cord: nearly doubles
